One data set has as its system SA‐K1758 (∆norA). The experiment in a line: microbe, parasite or virus in culture. Type of data set: cell-based. To be noted: Staphylococcus aureus.
A short description of data set [1]: Solution‐state stability test in MH‐II broth. Type of data set: physicochemical. To be noted: 512–1 µg mL^−1, 37 °C for a day, centrifuged. On the procedure:
Before accessing the minimal inhibitory concentration (MIC), each phenazinium derivative was subjected to a solution‐state stability test. For this experiment, each derivative was solubilized in DMSO to achieve a primary stock solution (20 mg mL^−1). This stock was further diluted in MilliQ to achieve a working stock solution (10 mg mL^−1). […] The tubes were placed in an incubator at 37 °C for a day and later centrifuged at 25 000 rpm for 25 min.

For data set [2], the system named is SA 1199 (Wild‐type, basal). The experiment in a line: MIC, broth microdilution (CLSI). The following applies: Staphylococcus aureus. The data set is classed as cell-based. Background: In broth dilution the organism is exposed to a series of concentrations in liquid medium.
The test system of data set [3] is Staphylococcus aureus ATCC 25923 (Reference, basal). The experiment in a line: MIC, broth microdilution (CLSI). Type of data set: cell-based. To be noted: ATCC25923.
The test system of data set [4] is SA 1199‐B (norA overexpressing). The experiment in a line: microbe, parasite or virus in culture. To be noted: Staphylococcus aureus. Type of data set: cell-based, Staphylococcus aureus.
Data set [5] is described as follows: Precipitation of reserpine in the presence of 5a4. The data set is classed as physicochemical. The following applies: text printed in Figure 7C.
The next data set has as its target NorA efflux pump (Staphylococcus aureus, UniProt P0A0J7). Type of data set: cell-based, S. aureus. To be noted: 5a4 1 µg mL^−1.
Data set [6] concerns S. epidermidis strains. Also noted: method as in earlier work. To be noted: cited from earlier work.
The test system of data set [7] is S. aureus strains. The following applies: cited from earlier work.
Data set [8] has as its system S. aureus strains. The data set is classed as cell-based.
The test system of data set [9] is S. epidermidis strains. The data set is classed as cell-based.

≈ marks a conversion by molar mass, not a printed value. Entries after “also recorded” stand apart in the source; their conditions may differ. Where two headings read alike, the source gives them in different places. Some results are limits rather than exact numbers.

NorA efflux pump, sequence (P0A0J7 whole entry): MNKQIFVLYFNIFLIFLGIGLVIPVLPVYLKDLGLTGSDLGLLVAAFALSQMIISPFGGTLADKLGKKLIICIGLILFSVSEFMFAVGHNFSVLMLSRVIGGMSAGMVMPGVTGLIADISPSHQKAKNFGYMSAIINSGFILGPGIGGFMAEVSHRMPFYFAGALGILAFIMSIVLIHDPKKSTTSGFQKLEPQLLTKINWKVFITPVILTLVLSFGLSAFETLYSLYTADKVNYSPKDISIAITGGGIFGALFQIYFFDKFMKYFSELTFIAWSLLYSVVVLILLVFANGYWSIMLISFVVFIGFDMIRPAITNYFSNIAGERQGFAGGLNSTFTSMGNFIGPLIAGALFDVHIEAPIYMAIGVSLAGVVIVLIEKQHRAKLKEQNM

Consider `CCCCCCCCNc1ccc2nc3cc(NCCC)c(N)cc3[n+](CCCCCCCC)c2c1` [5e1], for which the MIC against SA‐K1758 (∆norA) came out at 8 µg/mL; in data set [2] it was 16 µg/mL; in data set [3] it was 16 µg/mL; in [4] it was 16 µg/mL. Further, in [1], the “Solution state stability (concentration at which visible precipitation was observed)” value (“Solution state stability” for short) is “Visible precipitation was observed at 128 µg mL^−1”.
Regarding `COC(=O)[C@H]1[C@H]2C[C@@H]3c4[nH]c5cc(OC)ccc5c4CCN3C[C@H]2C[C@@H](OC(=O)c2cc(OC)c(OC)c(OC)c2)[C@@H]1OC` [reserpine], the “Precipitation of reserpine (concentration)” value in data set [5] fell in the range of 20 to 30 µg/mL. For the same compound, the “change of 5a4 fluorescent intensity with reserpine” value on NorA efflux pump (SA‐1199B) is recorded as “drastic increase”; at NorA efflux pump (SA‐K1758 (norA‐deficient)), “no discernible change”. In addition, the “reserpine concentration giving significant increase (p < 0.01) in 5a4 fluorescence intensity versus untreated cells” value at NorA efflux pump (SA‐1199 and SA‐1199B) was ≥ 10 µg/mL.
As to `CCCCNc1ccc2nc3cc(NCCCC)c(N)cc3[n+](CCCC)c2c1` [5d2], the MIC was 0.5 µg/mL in the data set with SA‐K1758 (∆norA), 1 µg/mL in data set [2], 1 µg/mL in [3] and 0.5 to 1 µg/mL in data set [4]. The “Solution state stability” value in data set [1] was “Visible precipitation was observed at 512 µg mL^−1 and beyond”.
Regarding `CCCCNc1ccc2nc3cc(NCCC)c(N)cc3[n+](CCCC)c2c1` [5d1], the MIC against SA‐K1758 (∆norA) was found to be 8 µg/mL; in [2] it was 16 µg/mL; in data set [3], 16 µg/mL; in data set [4], 16 µg/mL. Moreover, in [1], the “Solution state stability” value was “Visible precipitation was observed at 128 µg mL^−1 and beyond”.
Turning to `CCn1cc(C(=O)O)c(=O)c2cc(F)c(N3CCNCC3)cc21` [NOR, norfloxacin, reference compound], the MIC in the data set with SA‐K1758 (∆norA) came out at 0.25 µg/mL (≈ 0.783 µM); in data set [2] (SA 1199 (Wild‐type, basal), read-out: MIC) it was 2 µg/mL (≈ 6.26 µM); in [3] it was 2 µg/mL (≈ 6.26 µM); in [4] it was 32 µg/mL (≈ 100 µM).
Consider `CCCCNc1cc2nc3ccc(NCCC)cc3[n+](CCC)c2cc1N` [5c1], for which the MIC against SA‐K1758 (∆norA) came to 0.5 µg/mL; in data set [2], 2 µg/mL; in data set [3], 2 µg/mL; in [4] it was 2 µg/mL. Besides, the “Solution state stability” value in data set [1] is recorded as “Stable”.
`CCCCNc1ccc2nc3cc(NCCCC)c(N)cc3[n+](CCC)c2c1` [5a2]: the MIC came out at 0.25 µg/mL in the data set on SA‐K1758 (∆norA), 1 µg/mL in data set [2], 1 µg/mL in [3] and 2 µg/mL in data set [4]. Besides, the “Solution state stability” value in data set [1] was “Visible precipitation was observed at 512 µg mL^−1 and beyond”.
Regarding `O=C(O)c1cn(C2CC2)c2cc(N3CCNCC3)c(F)cc2c1=O` [CIP, Ciprofloxacin], the Susceptibility profile entry is “I” in the data set on S. epidermidis strains [6]; “I” with S. aureus strains [7] (strain ATCC25923, ref [4]); “I” in the data set on S. aureus strains [7] (strain ATCC25923_EtBr, ref [4]); “S” with S. aureus strains [7] (strain SA-1199, ref [2]); “R” with S. aureus strains [7] (strain SA-1199B, ref [2]); “S” in the data set on S. aureus strains [7] (strain SA-K1712, ref [3]). Besides, the Susceptibility profile entry in the data set with S. aureus strains [7] (strain SA-K1748, ref [3]) is recorded as “R”; in the data set on S. aureus strains [7] (strain SA-K1758, ref [2]) it was “S”; with S. aureus strains [7] (strain SA-K2068, ref [3]) it was “S”.
Take `CCCNc1ccc2nc3cc(NCCOC)c(N)cc3[n+](CCC)c2c1` [5c2]: the MIC amounted to 4 µg/mL against SA‐K1758 (∆norA), 8 µg/mL in data set [2], 4 µg/mL in data set [3] and 8 µg/mL in data set [4]. Moreover, the “Solution state stability” value in data set [1] was “excellent solubility and stability; also recorded: Stable”.
As for `COc1c(N2C[C@@H]3CCCN[C@@H]3C2)c(F)cc2c(=O)c(C(=O)O)cn(C3CC3)c12` [MXF, Moxifloxacin], the Susceptibility profile entry in the data set with S. aureus strains [8] was “R and S”; in the data set with S. aureus strains [8] ([…]) it was “S”; with S. aureus strains [8] (strain BIOS-H1) it was “S”; in the data set with S. aureus strains [8] (strain BIOS-H2) it was “S”; with S. aureus strains [8] (strain BIOS-H3), “S”; in the data set with S. aureus strains [8] (strain BIOS-H5) it was “S”. Besides, the Susceptibility profile entry with S. aureus strains [8] (strain BIOS-H6), with S. aureus strains [8] (strain BIOS-H12), with S. aureus strains [8] (strain BIOS-H13), in the data set with S. aureus strains [8] (strain BIOS-H17), with S. aureus strains [8] (strain BIOS-H20) and in the data set on S. aureus strains [8] (strain BIOS-H21) was “S” throughout. The Susceptibility profile result in the data set on S. aureus strains [8] (strain BIOS-H22), with S. aureus strains [8] (strain BIOS-H25), in the data set with S. aureus strains [8] (strain BIOS-H28), with S. aureus strains [8] (strain BIOS-H29), with S. aureus strains [8] (strain BIOS-H30) and in the data set with S. aureus strains [8] (strain BIOS-H32) was “S” in each case. The Susceptibility profile result in the data set with S. aureus strains [8] (strain BIOS-V21), with S. aureus strains [8] (strain BIOS-V31), in the data set with S. aureus strains [8] (strain BIOS-V60), in the data set on S. aureus strains [8] (strain BIOS-V61), in the data set on S. aureus strains [8] (strain BIOS-V62) and in the data set with S. aureus strains [8] (strain BIOS-V74) was “S” each time. The Susceptibility profile result with S. aureus strains [8] (strain BIOS-V75), in the data set with S. aureus strains [8] (strain BIOS-V85), in the data set on S. aureus strains [8] (strain BIOS-V118), with S. aureus strains [8] (strain BIOS-V128), in the data set with S. aureus strains [8] (strain BIOS-V147) and with S. aureus strains [8] (strain BIOS-V151) was “S” in each case. The Susceptibility profile entry with S. aureus strains [8] (strain BIOS-V156), with S. aureus strains [8] (strain BIOS-V157), in the data set on S. aureus strains [8] (strain BIOS-V158), in the data set with S. aureus strains [8] (strain BIOS-V168), with S. aureus strains [8] (strain BIOS-V172) and in the data set with S. aureus strains [8] (strain BIOS-V178) was “S” each time. For the same compound, the Susceptibility profile result in the data set with S. aureus strains [8] (strain BIOS-V203), with S. aureus strains [8] (strain BIOS-V245), in the data set with S. aureus strains [8] (strain BIOS-V250), in the data set with S. aureus strains [8] (strain BIOS-V257), in the data set with S. aureus strains [8] (strain BIOS-V279) and in the data set with S. aureus strains [8] (strain BIOS-V295) was “S” in each case. The Susceptibility profile result is on record as “R” with S. epidermidis strains [9]; “S” in the data set on S. epidermidis strains [9] (strain BIOS-V24); “S” in the data set on S. epidermidis strains [9] (strain BIOS-V282); “S” in the data set on S. epidermidis strains [6] (strain ATCC12228, ref [5]); “R” in the data set with S. epidermidis strains [6] (strain ATCC12228_EtBr, ref [5]); “S” in the data set on S. aureus strains [7] (strain ATCC25923, ref [4]). Besides, the Susceptibility profile result in the data set with S. aureus strains [7] (strain SA-1199, ref [2]) is on record as “S”; with S. aureus strains [7] (strain SA-1199B, ref [2]), “S”; in the data set on S. aureus strains [7] (strain SA-K1712, ref [3]), “S”; with S. aureus strains [7] (strain SA-K1748, ref [3]), “R”; with S. aureus strains [7] (strain SA-K1758, ref [2]), “S”; in the data set with S. aureus strains [7] (strain SA-K2068, ref [3]) it was “R”.
Turning to `CCCCCCCCNc1cc2nc3ccc(NCCCC)cc3[n+](CCCCCCCC)c2cc1N` [5b3], the MIC (in the data set with SA‐K1758 (∆norA); in data set [2]; in data set [3]) was 32 µg/mL in each case. Further, the “Solution state stability” value in [1] was “Visible precipitation was observed at 128 µg mL^−1 and beyond”.
For `CCCCCCCCNc1cc2nc3ccc(NCCCC)cc3[n+](CCC)c2cc1N` [5a3], the MIC against SA‐K1758 (∆norA) was determined as 8 µg/mL; in data set [2], 64 µg/mL; in data set [3] it was 64 µg/mL; in data set [4] it was 64 µg/mL. Further, the “Solution state stability” value in [1] is “Visible precipitation was observed at 128 µg mL^−1 and beyond”.
`CCCCCCCC[n+]1c2cc(NCCCC)ccc2nc2cc(NCCOC)c(N)cc21` [5b4]: the MIC against SA‐K1758 (∆norA) turned out to be 2 µg/mL; in data set [2], 1 µg/mL; in [3], 1 µg/mL; in data set [4], 1 µg/mL. For the same compound, in [1], the “Solution state stability” value is “excellent solubility and stability; also recorded: Stable”.
As for `CCCCCCCCNc1ccc2nc3cc(NCCCCCCCC)c(N)cc3[n+](CCCCCCCC)c2c1` [5e3], the MIC against SA‐K1758 (∆norA) was 64 µg/mL; in data set [2], 64 µg/mL; in data set [3], 32 µg/mL; in data set [4], 64 µg/mL. Besides, the “Solution state stability” value in data set [1] was “Visible precipitation was observed at 128 µg mL^−1”.
With `CCCCCCCCNc1ccc2nc3cc(NC(C)(C)C)c(N)cc3[n+](CCCCCCCC)c2c1` [5e2], the MIC (against SA‐K1758 (∆norA); in data set [2]; in data set [3]; in data set [4]) was 8 µg/mL each time. Further, the “Solution state stability” value in [1] is recorded as “Stable”.
With `CCCCNc1ccc2nc3cc(NCCC)c(N)cc3[n+](CCC)c2c1` [5a1], the MIC against SA‐K1758 (∆norA) is 0.5 µg/mL; in data set [2], 1 µg/mL; in [3] it was 1 µg/mL; in [4] it was 2 µg/mL. For the same compound, in data set [1], the “Solution state stability” value was “Visible precipitation was observed at 128 µg mL^−1 and beyond”.

These data come from article PMC12023841, “Unlocking the Gates: A Novel Diagnostic Molecule for Quantifying Efflux Levels in Gram‐Positive Bacteria” (Advanced Healthcare Materials, 2025).
